Consider one compound from BindingDB's records for doi:10.1016/S0960-894X(97)00091-7 (1997).

Where a SMILES comes first, the peptide text is derived from it. The star is where a group is joined. Cbz = O=C(OCc1ccccc1)*

The target of test [1] is Chymotrypsinogen A (Bos taurus) (UniProt P00766). Description: The compound was tested for the inhibition of alpha-Chymotrypsin, activity expressed as IC50.
Test [2] shares this target. The test is described as above. This is another data set of the same source.

For the compound `C[C@H](NC(=O)OCc1ccccc1)C(=O)N[C@@H](C)C(=O)N[C@H](C=O)Cc1ccccc1` [{1-[1-(1-Benzyl-2-oxo-ethylcarbamoyl)-ethylcarbamoyl]-ethyl}-carbamic acid benzyl ester] (Cbz-Ala-Ala-Phe-aldehyde), in test [1], the affinity corresponds to a Ki of 2.2 µM. In test [2], the concentration for half-maximal inhibition (IC50) came to 0.95 µM.

In general, Ki refers to a measure of affinity in units of concentration, obtained from inhibition or displacement. The term IC50 denotes the midpoint of a concentration-inhibition curve. The low end stands for greater potency, the high end for weaker potency.
